How the values were obtained:
[1] = tested on: children with good nonverbal development not functioning well with reading and language skills; experiment: Three minute reading test before and after administering the medicine (FIG. 2 and FIG. 3); assay type: in vivo, human; details: most of the nine children; 5 mg; pre- versus after administering
Description: FIG. 2 is a comparison of the reading abilities of a group of children with a various diagnosed symptoms between pre-treatment and after-treatment with one dosage of 5-7.5 mg of methylphenidate.
FIG. 3 is a comparison of the reading abilities of another group of children with a various diagnosed symptoms between pre-treatment and after-treatment with one dosage of 5-7.5 mg of methylphenidate.
Metrics for quantitative assessment of the language ability include words per minute, three minute reading test, sentence complexity such as length in words, complexity of construction, etc. The number of correctly read syllables minuses the number of mistakes divided by the months of reading training may be used to assess the language ability development.
In reference to FIG. 2 and FIG. 3. […] They were tested for three minute reading before and after administering the medicine. The mistakes in pronouncing syllables were counted. The correct pronunciation ratios (divided by the total number of syllables read) were compared between the pre-administering the drug and after administering the drug. […] Most of them had least 40% improvement.

[2] = tested on: children with apraxia of speech; experiment: Speech and language assessment of children with apraxia of speech before and after a psychostimulant dose (case examples); assay type: in vivo, human
Excerpt: Assessment of the verbal ability of a subject can include but is not limited to measures of all the domains described herein: nonspeech oral-motor, speech production, prosody, voice, speech perception, language, and, for older children, linguistic/literacy skills. Of these, (a) inconsistent errors on consonants and vowels in repeated productions of syllables or words, (b) lengthened and disrupted coarticulatory transitions between sounds and syllables, (c) inappropriate prosody, especially in the realization of lexical or phrasal stress; (d) the inability to see a new word and to have the ability to identify and sequence in time and space the sounds not only by themselves but in relationship to one another to be able to produce to transform from a symbol, orthographic to sound representation but to do it according to the rules of language knowing where to divide the written symbols into units; (e) the inability to not only transform into sounds, but sounds in relationship in terms of speed and volume to have that word in the context have that meaning that the author of the written word wanted to convey. The cultural and linguistic background of each subject may optionally be assessed.
When treating a child who is incapable of communication, the child is tested with respect to language skills as well as visual-spatial comprehension skills. For example, a child may be asked to pronounce a few single syllable words, such as “ma, ma” “ba, ba” or to described a picture or read a few words. At the same time, the child's body motions and emotional interactions with other people are observed.
For example, an improvement in a subject may include but is not limited to, an increase in the number of correct phonemes when speaking, a more normal time spent enunciating words, the number of times the last consonant of a word is used correctly, the proper sequencing of words and events, appropriate sound intensity.
Depending where the patient is on the apraxia pyramid, for example vocalization, words, prosody, the number of words in the sentence, the number or types of words in the sentence, the grammar syntax, prosody, measuring the child to his/her previous ability 20-30 minutes ago in addition to medication.

SMILES	improvement of correct pronunciation ratio, three minute reading [1]	speech ability after dose (Example 1) ([2]; 11 year autistic boy, 10 mg tablets, thirty minutes after dose)	speech improvement (Example 9A, third visit) ([2]; Participant 9A, 5 mg/day, after a month)	comprehension (Example 9A, fourth visit) ([2]; Participant 9A, 10 mg/day, about a month later)	reading ability after dose (Example 5) ([2]; child with dyslexia, 10 mg, half an hour later)	speech ability after dose (Example 7) ([2]; child, chromosome 15 duplication, 2.5 mg, thirty minutes later)	speech and motor ability after dose (Example 8) ([2]; child, 5 mg, after 30 minutes)	speech ability after dose (Example 2) ([2]; child, one dosage of 5 mg, half an hour later)	follow up on speech after repeated dosing (Example 7) ([2]; same child, 2.5 mg a day for two to three months)	speech and language (Example 9A, fifth visit) ([2]; Participant 9A, 10 mg/day after the methylphenidate regimen, about two weeks later)	speech and comprehension (Example 9B) ([2]; Participant 9B, same regimen as 9A (methylphenidate 5 then 10 mg/day, then Focalin 10 mg/day))
COC(=O)C(c1ccccc1)C1CCCCN1 (centres unmarked) [methylphenidate]	≥ 40%	able to imitate “ma ma ma”	no significant improvement in speech	able to understand the story line of a children's book	able to read a sentence with smooth pronunciations	able to make sounds of “ma mi”, mimic “bye”, “bye” and babble with sounds	able to repeat two syllable words	able to follow instructions to mimic the sounds “ma” “ma” “ga” “ga”	good progress in speaking sounds		
COC(=O)[C@H](c1ccccc1)[C@H]1CCCCN1 [Focalin®, dextro-threo-methylphenidate]										able to answer questions about their daily life in clear speech and language	an improvement in speech and comprehension
